# Source: ChEMBL document CHEMBL4229379, “Synthesis and structure-activity relationship of novel bisindole amidines active against MDR Gram-positive and Gram-negative bacteria” (Eur J Med Chem, 2018)
# Tests used:
# Escherichia coli [1] = assay: Antibacterial activity against extended-spectrum beta-lactamase deficient Escherichia coli 12-14 after 18 hrs by CLSI broth microdilution method; format: functional; details: 12-14, 18 h
# Providencia rettgeri = assay: Antibacterial activity against Providencia rettgeri ATCC 31052 after 18 hrs by CLSI broth microdilution method; format: functional; details: ATCC 31052, 18 h
# [2] = tested on: Staphylococcus epidermidis; assay: Antibacterial activity against methicillin-sensitive Staphylococcus epidermidis 12-6 after 18 hrs by CLSI broth microdilution method; format: functional; details: 12-6, 18 h
# [3] = tested on: Staphylococcus epidermidis; assay: Antibacterial activity against methicillin-sensitive Staphylococcus epidermidis ATCC 12228 after 18 hrs by CLSI broth microdilution method; format: functional; details: ATCC 12228, 18 h
# Klebsiella pneumoniae [4] = assay: Antibacterial activity against extended-spectrum beta-lactamase deficient Klebsiella pneumoniae 12-4 after 18 hrs by CLSI broth microdilution method; format: functional; details: 12-4, 18 h
# Enterococcus faecalis [5] = assay: Antibacterial activity against vancomycin-sensitive Enterococcus faecalis 12-5 after 18 hrs by CLSI broth microdilution method; format: functional; details: 12-5, 18 h
# Enterococcus faecium [6] = assay: Antibacterial activity against vancomycin-resistant Enterococcus faecium ATCC 700221 after 18 hrs by CLSI broth microdilution method; format: functional; details: ATCC 700221, 18 h
# Staphylococcus aureus [7] = assay: Antibacterial activity against methicillin-sensitive Staphylococcus aureus ATCC 29213 after 18 hrs by CLSI broth microdilution method; format: functional; details: ATCC 29213, 18 h
# Enterococcus faecalis [8] = assay: Antibacterial activity against vancomycin-resistant Enterococcus faecalis 09-9 after 18 hrs by CLSI broth microdilution method; format: functional; details: 09-9, 18 h
# Staphylococcus aureus [9] = assay: Antibacterial activity against methicillin-sensitive Staphylococcus aureus 15 after 18 hrs by CLSI broth microdilution method; format: functional; details: Staphylococcus aureus, 15, 18 h
# Enterococcus faecium [10] = assay: Antibacterial activity against vancomycin-sensitive Enterococcus faecium 12-3 after 18 hrs by CLSI broth microdilution method; format: functional; details: 12-3, 18 h
# Pseudomonas aeruginosa [11] = assay: Antibacterial activity against Pseudomonas aeruginosa 12-16 after 18 hrs by CLSI broth microdilution method; format: functional; details: 12-16, 18 h
# Proteus mirabilis = assay: Antibacterial activity against Proteus mirabilis 12-6 after 18 hrs by CLSI broth microdilution method; format: functional; details: 12-6, 18 h
# Pseudomonas aeruginosa [12] = assay: Antibacterial activity against Pseudomonas aeruginosa ATCC 27853 after 18 hrs by CLSI broth microdilution method; format: functional; details: ATCC 27853, 18 h
# Pseudomonas aeruginosa [13] = assay: Antibacterial activity against Pseudomonas aeruginosa PAO1 after 18 hrs by CLSI broth microdilution method; format: functional; details: PAO1, 18 h
# Citrobacter freundii = assay: Antibacterial activity against Citrobacter freundii ATCC 43864 after 18 hrs by CLSI broth microdilution method; format: functional; details: ATCC 43864, 18 h
# [14] = tested on: Acinetobacter calcoaceticus; assay: Antibacterial activity against Acinetobacter calcoaceticus ATCC 19606 after 18 hrs by CLSI broth microdilution method; format: functional; details: ATCC 19606, 18 h
# Enterococcus faecalis [15] = assay: Antibacterial activity against vancomycin-sensitive Enterococcus faecalis ATCC 29212 after 18 hrs by CLSI broth microdilution method; format: functional; details: ATCC 29212, 18 h
# Enterococcus faecium [16] = assay: Antibacterial activity against vancomycin-resistant Enterococcus faecium 12-1 after 18 hrs by CLSI broth microdilution method; format: functional; details: 12-1, 18 h
# Klebsiella pneumoniae [17] = assay: Antibacterial activity against new delhi metallo-beta-lactamase-1 harboring Klebsiella pneumoniae ATCC BAA-2146 after 18 hrs by CLSI broth microdilution method; format: functional; details: ATCC BAA-2146, 18 h
# Enterococcus faecalis [18] = assay: Antibacterial activity against vancomycin-resistant Enterococcus faecalis ATCC 51299 after 18 hrs by CLSI broth microdilution method; format: functional; details: ATCC 51299, 18 h
# Enterobacter cloacae = assay: Antibacterial activity against Enterobacter cloacae ATCC 43560 after 18 hrs by CLSI broth microdilution method; format: functional; details: ATCC 43560, 18 h
# Escherichia coli [19] = assay: Antibacterial activity against extended-spectrum beta-lactamase harboring Escherichia coli 12-15 after 18 hrs by CLSI broth microdilution method; format: functional; details: 12-15, 18 h
# Proteus vulgaris = assay: Antibacterial activity against Proteus vulgaris ATCC 29905 after 18 hrs by CLSI broth microdilution method; format: functional; details: ATCC 29905, 18 h
# Klebsiella pneumoniae [20] = assay: Antibacterial activity against extended-spectrum beta-lactamase deficient Klebsiella pneumoniae 7 after 18 hrs by CLSI broth microdilution method; format: functional; details: Klebsiella pneumoniae, 7, 18 h
# Staphylococcus aureus [21] = assay: Antibacterial activity against methicillin-sensitive Staphylococcus aureus 12-28 after 18 hrs by CLSI broth microdilution method; format: functional; details: 12-28, 18 h
# Escherichia coli [22] = assay: Antibacterial activity against extended-spectrum beta-lactamase deficient Escherichia coli 1515 after 18 hrs by CLSI broth microdilution method; format: functional; details: Escherichia coli, 1515, 18 h
# [23] = tested on: Staphylococcus epidermidis; assay: Antibacterial activity against methicillin-resistant Staphylococcus epidermidis 12-8 after 18 hrs by CLSI broth microdilution method; format: functional; details: 12-8, 18 h
# Klebsiella pneumoniae [24] = assay: Antibacterial activity against extended-spectrum beta-lactamase harboring Klebsiella pneumoniae 12-8 after 18 hrs by CLSI broth microdilution method; format: functional; details: 12-8, 18 h
# Klebsiella pneumoniae [25] = assay: Antibacterial activity against extended-spectrum beta-lactamase harboring Klebsiella pneumoniae ATCC 700603 after 18 hrs by CLSI broth microdilution method; format: functional; details: Klebsiella pneumoniae, 700603, 18 h
# Klebsiella aerogenes = assay: Antibacterial activity against Enterobacter aerogenes ATCC 13048 after 18 hrs by CLSI broth microdilution method; format: functional; details: ATCC 13048, 18 h
# Staphylococcus aureus [26] = assay: Antibacterial activity against methicillin-resistant Staphylococcus aureus ATCC 33591 after 18 hrs by CLSI broth microdilution method; format: functional; details: ATCC 33591, 18 h
# Serratia marcescens = assay: Antibacterial activity against Serratia marcescens ATCC 21074 after 18 hrs by CLSI broth microdilution method; format: functional; details: ATCC 21074, 18 h
# Escherichia coli [27] = assay: Antibacterial activity against extended-spectrum beta-lactamase deficient Escherichia coli ATCC 25922 after 18 hrs by CLSI broth microdilution method; format: functional; details: ATCC 25922, 18 h
# [28] = tested on: Stenotrophomonas maltophilia; assay: Antibacterial activity against Stenotrophomonas maltophilia ATCC 13636 after 18 hrs by CLSI broth microdilution method; format: functional; details: ATCC 13636, 18 h
# Staphylococcus aureus [29] = assay: Antibacterial activity against methicillin-resistant Staphylococcus aureus 12-33 after 18 hrs by CLSI broth microdilution method; format: functional; details: 12-33, 18 h
# [30] = Cytotoxicity against HEK293T cells assessed as reduction in cell viability after 48 hrs by MTS assay; format: cell-based, HEK-293T; details: human
SMILES,MIC (Escherichia coli [1]) [µg/mL],MIC (Providencia rettgeri) [µg/mL],MIC [2] [µg/mL],MIC [3] [µg/mL],MIC (Klebsiella pneumoniae [4]) [µg/mL],MIC (Enterococcus faecalis [5]) [µg/mL],MIC (Enterococcus faecium [6]) [µg/mL],MIC (Staphylococcus aureus [7]) [µg/mL],MIC (Enterococcus faecalis [8]) [µg/mL],MIC (Staphylococcus aureus [9]) [µg/mL],MIC (Enterococcus faecium [10]) [µg/mL],MIC (Pseudomonas aeruginosa [11]) [µg/mL],MIC (Proteus mirabilis) [µg/mL],MIC (Pseudomonas aeruginosa [12]) [µg/mL],MIC (Pseudomonas aeruginosa [13]) [µg/mL],MIC (Citrobacter freundii) [µg/mL],MIC [14] [µg/mL],MIC (Enterococcus faecalis [15]) [µg/mL],MIC (Enterococcus faecium [16]) [µg/mL],MIC (Klebsiella pneumoniae [17]) [µg/mL],further results
CN(C)C(=N)c1ccc2cc(-c3ccc(Oc4ccc(-c5cc6ccc(C(=N)N(C)C)cc6[nH]5)cc4)cc3)[nH]c2c1,8,8,0.25,0.125,8,2,2,0.25,2,0.25,2,> 128,32,128,> 128,8,> 128,0.5,2,8,MIC (Enterococcus faecalis [18]): 1 µg/mL; MIC (Enterobacter cloacae): 64 µg/mL; MIC (Escherichia coli [19]): 8 µg/mL; MIC (Proteus vulgaris): 8 µg/mL; MIC (Klebsiella pneumoniae [20]): 8 µg/mL; MIC (Staphylococcus aureus [21]): 0.25 µg/mL; MIC (Escherichia coli [22]): 4 µg/mL; MIC [23]: 0.25 µg/mL; MIC (Klebsiella pneumoniae [24]): 8 µg/mL; MIC (Klebsiella pneumoniae [25]): 8 µg/mL; MIC (Klebsiella aerogenes): 8 µg/mL; MIC (Staphylococcus aureus [26]): 0.25 µg/mL; MIC (Serratia marcescens): 32 µg/mL; MIC (Escherichia coli [27]): 4 µg/mL; MIC [28]: 16 µg/mL; MIC (Staphylococcus aureus [29]): 0.25 µg/mL
COCCNC(=N)c1ccc2cc(-c3ccc(-c4cc5ccc(C(=N)NCCOC)cc5[nH]4)cc3)[nH]c2c1,2,8,0.125,0.125,8,2,0.5,0.25,1,0.25,0.5,32,32,16,32,2,32,0.5,0.5,8,CC50 at 48 h [30]: 3.95 µg/mL; MIC (Enterococcus faecalis [18]): 0.5 µg/mL; MIC (Enterobacter cloacae): 2 µg/mL; MIC (Escherichia coli [19]): 4 µg/mL; MIC (Proteus vulgaris): 16 µg/mL; MIC (Klebsiella pneumoniae [20]): 8 µg/mL; MIC (Staphylococcus aureus [21]): 0.25 µg/mL; MIC (Escherichia coli [22]): 8 µg/mL; MIC [23]: 0.125 µg/mL; MIC (Klebsiella pneumoniae [24]): 8 µg/mL; MIC (Klebsiella pneumoniae [25]): 16 µg/mL; MIC (Klebsiella aerogenes): 8 µg/mL; MIC (Staphylococcus aureus [26]): 0.25 µg/mL; MIC (Serratia marcescens): 16 µg/mL; MIC (Escherichia coli [27]): 2 µg/mL; MIC [28]: 16 µg/mL; MIC (Staphylococcus aureus [29]): 0.25 µg/mL
CN1CCC2(CC1)CCN(C(=N)c1ccc3cc(-c4ccc(-c5cc6ccc(C(=N)N7CCC8(CCN(C)CC8)C7)cc6[nH]5)cc4)[nH]c3c1)C2,16,> 128,8,2,16,128,16,8,16,8,16,128,> 128,32,64,16,> 128,16,16,16,CC50 at 48 h [30]: 28.4 µg/mL; MIC (Enterococcus faecalis [18]): 16 µg/mL; MIC (Enterobacter cloacae): > 128 µg/mL; MIC (Escherichia coli [19]): 16 µg/mL; MIC (Proteus vulgaris): 128 µg/mL; MIC (Klebsiella pneumoniae [20]): 8 µg/mL; MIC (Staphylococcus aureus [21]): 16 µg/mL; MIC (Escherichia coli [22]): 8 µg/mL; MIC [23]: 4 µg/mL; MIC (Klebsiella pneumoniae [24]): 16 µg/mL; MIC (Klebsiella pneumoniae [25]): 64 µg/mL; MIC (Klebsiella aerogenes): 16 µg/mL; MIC (Staphylococcus aureus [26]): 8 µg/mL; MIC (Serratia marcescens): > 128 µg/mL; MIC (Escherichia coli [27]): 8 µg/mL; MIC [28]: > 128 µg/mL; MIC (Staphylococcus aureus [29]): 8 µg/mL
